Laboratory results from patent publication US20170096636A1, “METHODS AND COMPOUNDS FOR PHOTOTHERAPY WITH CHALCOGENORHODAMINE PHOTOSENSITIZERS” (Wake Forest University Health Sciences, priority 2014, published 2017).
Values joined by “and” are separate entries in the source; they are usually repeats but may differ in a detail not shown here. Identical values can stand only once. “Also recorded” adds a separate entry of the source. Like-named read-outs stand apart in the source and are kept apart here.

Key:
[1] = Quantum yield for generation of singlet oxygen, time-resolved 1O2 phosphorescence; format: physicochemical; settings: air-saturated MeOH, TMR-Se as reference
[2] = tested on: HUT-78 cells; test: Cellular uptake and extrusion of photosensitizer (flow cytometry MFI); format: cell-based; settings: ±SE; for Uptake MFI: 2.5 × 10^−7 M photosensitizer, 20 minutes exposure; for % Extrusion: percent change in MFI after 18 hour extrusion period, 2.5 × 10^−7 M
Experimental: Cellular Uptake and Extrusion of Chalcogenorhodamine Photosensitizers. […] Cellular uptake of the chalcogenorhodamine photosensitizers was measured after a 20 minute exposure to 2.5×10^−7 M photosensitizer in malignant T cells (HUT-78 cells, Table 2). Transmembrane movement of the photosensitizers in the secretory direction (basolateral to apical) was measured after an 18-h extrusion period. As described above, the Se-containing molecules fluoresced at a lower intensity relative to the S-containing molecules. […] Overall, the PF6^− salts were more slowly extruded from cells relative to the chloride salts of the amide, with a greater difference in the extrusion kinetics noted between the thiorhodamine PF6 salts compared to the selenorhodamine chloride salts.

[3] = Fluorescence quantum yield in MeOH; format: physicochemical; settings: quantum yield for fluorescence in MeOH
[4] = physchem; settings: n-octanol/phosphate buffered saline, pH 7.4
[5] = not given; remark: listed apart in the source
[6] = reference value; cited from earlier work
[7] = tested on: cytochrome c oxidase; settings: whole cells, irradiation; cited from earlier work
[8] = tested on: resting T cells; test: Dark toxicity: bioenergetics (O2 consumption rate) of resting T cells; settings: 5.0×10^−7 M
[9] = tested on: immunomagnetically-selected CD3+ cells; test: Phototoxicity: photodepletion (PD) of CD3+ cells, real-time OCR; format: cell-based; settings: 5.0×10^−8 M 20 minutes, 30 minutes photosensitizer-free, 5 J/cm^2 light
From the text: (§1) Selective phototoxicity of Chalcogenorhodamine Photosensitizers. Based on the rapid extrusion kinetics and low potential for toxicity in resting cells, we selected four amide-containing half-julolidine analogues for further analysis (2-S—Cl, 2-Se—Cl, 4-S—Cl, and 4-Se—Cl). These photosensitizers are associated with high singlet oxygen quantum yields (Table I). As a result, very low concentrations of these agents are required for phototherapy. For all PD experiments, immunomagnetically-selected CD3^+ cells were suspended in a photosensitizer-rich media of 5.0×10^−8 M for 20 minutes followed by 30 minutes in a photosensitizer-free media. Cells were then exposed to 5 J/cm^2 of light followed by real-time measurement of OCR and ECAR. […] We next evaluated the effects of PD on cell survival. For these experiments, FACS analysis was performed 18 hours after PD. Cell survival was identified by failure to bind Annexin 5 and 7AAD, and percent survival was calculated as the difference in the absolute number of cells between PD and control (non-PD samples) samples.

[10] = tested on: immunomagnetically-selected CD3+ cells; test: Phototoxicity: cell survival by FACS (Annexin 5/7AAD) 18 hours after PD; format: cell-based; settings: 5.0×10^−8 M, 5 J/cm^2 light, FACS 18 hours after PD
From the text: as §1

[11] = tested on: MDCK-MDR1 cells; settings: cited from earlier work
[12] = target: P-gp (Homo sapiens, UniProt P08183); settings: cited from earlier work
[13] = tested on: activated T cells (CD25+); test: PD of activated T cells after SEB stimulation: bioenergetics and survival; format: cell-based; settings: 5×10^−8 M, 5 J/cm^2
Experimental: To evaluate the differential effects of PD on bioenergetics of activated and resting T cells, immunomagnetically-selected CD25^+ and CD25^− T cells were isolated (>95% purity) after SEB stimulation. PD was then performed, and bioenergetics were measured within 1 hour. The percent of basal OCR devoted to ATP production was determined by comparing basal OCR to baseline OCR (after oligomycin injection). […] Upon exposure to light, the higher concentration of 2-Se—Cl selectively disrupted OXPHOS in activated T cells. To determine whether the selective impedance of basal ATP production affected cell survival, we performed FACS analysis 18 hours after PD (FIG. 5C).

[14] = tested on: PBMCs; format: cell-based; settings: SEB 50 ng/mL 72 hours, CFSE
[15] = tested on: resting T cells (CD25−)
[16] = n-octanol / PBS pH 7.4, shake flask

Chain of P-gp (P08183 whole entry): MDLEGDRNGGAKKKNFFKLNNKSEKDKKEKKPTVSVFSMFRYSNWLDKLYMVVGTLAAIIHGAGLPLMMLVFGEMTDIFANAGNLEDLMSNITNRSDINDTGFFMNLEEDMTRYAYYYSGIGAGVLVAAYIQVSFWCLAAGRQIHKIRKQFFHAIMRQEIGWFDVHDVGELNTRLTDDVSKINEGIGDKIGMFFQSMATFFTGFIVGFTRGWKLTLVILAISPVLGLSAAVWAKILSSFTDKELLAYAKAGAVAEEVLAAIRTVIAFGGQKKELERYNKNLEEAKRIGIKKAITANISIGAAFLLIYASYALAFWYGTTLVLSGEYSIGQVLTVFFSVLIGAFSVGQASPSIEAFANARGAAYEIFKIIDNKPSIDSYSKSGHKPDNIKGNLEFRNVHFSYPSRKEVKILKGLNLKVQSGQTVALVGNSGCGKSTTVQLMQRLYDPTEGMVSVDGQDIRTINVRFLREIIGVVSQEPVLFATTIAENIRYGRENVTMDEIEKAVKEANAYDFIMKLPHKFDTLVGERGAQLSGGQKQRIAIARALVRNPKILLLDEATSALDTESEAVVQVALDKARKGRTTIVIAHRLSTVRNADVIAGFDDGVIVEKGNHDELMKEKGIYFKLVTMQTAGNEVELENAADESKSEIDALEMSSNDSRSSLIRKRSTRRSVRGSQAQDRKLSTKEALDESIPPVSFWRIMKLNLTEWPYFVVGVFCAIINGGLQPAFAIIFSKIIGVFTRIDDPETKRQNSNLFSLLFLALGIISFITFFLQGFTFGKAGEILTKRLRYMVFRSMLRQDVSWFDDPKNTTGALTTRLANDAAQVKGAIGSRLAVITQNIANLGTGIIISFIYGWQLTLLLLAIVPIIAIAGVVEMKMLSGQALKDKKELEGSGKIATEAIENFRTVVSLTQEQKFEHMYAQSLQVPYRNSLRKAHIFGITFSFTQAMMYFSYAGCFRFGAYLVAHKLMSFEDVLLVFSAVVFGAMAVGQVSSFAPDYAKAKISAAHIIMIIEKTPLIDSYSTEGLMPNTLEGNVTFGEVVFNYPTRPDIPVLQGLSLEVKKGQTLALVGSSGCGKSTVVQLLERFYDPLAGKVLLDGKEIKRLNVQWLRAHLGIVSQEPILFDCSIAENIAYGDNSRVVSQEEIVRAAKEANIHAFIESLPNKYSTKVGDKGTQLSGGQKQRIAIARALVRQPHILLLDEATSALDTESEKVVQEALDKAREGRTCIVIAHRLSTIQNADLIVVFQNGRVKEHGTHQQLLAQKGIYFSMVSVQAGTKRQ

Compound | Φ(^1O2), MeOH [1] | log P [16] | Uptake MFI [2] | % Extrusion [2] | ΦF, MeOH [3] | further results
CN1CCC(C)(C)c2cc3c(-c4ccc(C(=S)N5CCCCC5)s4)c4ccc(=[N+](C)C)cc-4[se]c3cc21.[Cl-] [1-Se—Cl, N-methyl-N-(1,4,4-trimethyl-6-(5-(piperidine-1-carbonothioyl)thiophen-2-yl)-3,4-dihydro-1H-selenochromeno[3,2-g]quinolin-9(2H)-ylidene)methanaminium Chloride] | 0.44 ± 0.03 | 1.61 ± 0.06 | 6162 (±633) | 90.06 (±1.95) % | 0.008 ± 0.001 | –
CCN(CC)C(=O)c1ccc(-c2c3ccc(N(C)C)cc3[se+]c3c4c5c(cc23)CCCN5CCC4)s1.[Cl-] [8-Se—Cl, 12-(Dimethylamino)-2,3,6,7-tetrahydro-9-(5-(diethylcarbamoyl)-thiophen-2-yl)-1H,5H-selenoxantheno[2,3,4-ij]quinolizin-14-ium Chloride] | – | – | 19365 | 83.05 (±1.78) % | – | logP [4]: 2.87 ± 0.01; melting point [5]: 150 to 152 °C
CN(C)c1ccc2c(-c3ccccc3)c3ccc(=[N+](C)C)cc-3[se]c2c1.[Cl-] [TMR-Se] | – | – | – | – | – | Φ(^1O2) of reference [6]: 0.87; cytochrome c oxidase activity in irradiated treated cells [7]: light fluence-dependent inhibition of cytochrome c oxidase activity
CCN(CC)C(=O)c1ccc(-c2c3ccc(N(C)C)cc3[s+]c3c4c5c(cc23)CCCN5CCC4)s1.[Cl-] [8-S—Cl] | – | 2.65 ± 0.02 | 114750 | 78.55 (±2.35) % | – | dark toxicity [8]: not associated with any significant dark toxicity
CN(C)c1ccc2c(-c3ccc(C(=S)N4CCCCC4)s3)c3cc4c5c(c3[se+]c2c1)CCCN5CCC4.[Cl-] [5-Se—Cl] | 0.13±0.03 and 0.13 ± 0.02 | 3.00 ± 0.02 | 12814 (±1256) | 85.03 (±2.90) % | 0.009 ± 0.002 | –
CN(C)c1ccc2c(-c3ccccc3)c3ccc(=[N+](C)C)cc-3sc2c1.[Cl-] [TMR-S] | – | – | – | – | – | cytochrome c oxidase activity in irradiated treated cells [7]: light fluence-dependent inhibition of cytochrome c oxidase activity
CCN(CC)C(=S)c1ccc(-c2c3ccc(=[N+](C)C)cc-3[se]c3cc4c(cc23)C(C)(C)CCN4C)s1.[Cl-] [3-Se—Cl, N-(6-(5-(diethylcarbamothioyl)thiophen-2-yl)-1,4,4-trimethyl-3,4-dihydro-1H-seleno-chromeno[3,2-g]quinolin-9(2H)-ylidene)-N-methylmethanaminium Chloride] | 0.54±0.03 | – | 5480 (±666) | 88.65 (±1.21) % | 0.008 ± 0.002 | log P (pH 7.4): 2.41 ± 0.04
CCN(CC)C(=O)c1ccc(-c2c3ccc(=[N+](C)C)cc-3[se]c3cc4c(cc23)C(C)(C)CCN4C)s1.[Cl-] [4-Se—Cl, N-(6-(5-(diethylcarbamoyl)thiophen-2-yl)-1,4,4-trimethyl-3,4-dihydro-1H-selenochromeno-[3,2-g]quinolin-9(2H)-ylidene)-N-methylmethanaminium Chloride] | 0.50 ± 0.03 | 2.26 ± 0.04 | 5209 | 92.24 (±0.69) % | 0.009 ± 0.001 | effect of PD on basal OCR [9]: did not significantly impede the basal OCR; cell death after PD [10]: minimal cell death
CN1CCC(C)(C)c2cc3c(-c4ccc(C(=O)N5CCCCC5)s4)c4ccc(=[N+](C)C)cc-4sc3cc21.[Cl-] [2-S—Cl] | – | 2.26 ± 0.04 | 50993 | 92.70 (±0.74) % | 0.09 ± 0.01 | cell death after PD [10]: Significant cell death
CCN(CC)C(=O)c1ccc(-c2c3ccc(N(C)C)cc3[s+]c3c4c5c(cc23)CCCN5CCC4)s1.F[P-](F)(F)(F)(F)F [8-S—PF6] | – | 1.4 | 128000 | 79.40 (±1.56) % | – | PBA [11]: 210 nm/s; effect on ATPase activity in P-gp [12]: stimulate ATPase activity
CN1CCC(C)(C)c2cc3c(-c4ccc(C(=O)N5CCCCC5)s4)c4ccc(=[N+](C)C)cc-4sc3cc21.F[P-](F)(F)(F)(F)F [2-S—PF6] | – | 1.2 | 71978 | 91.79 (±1.16) % | 0.09 ± 0.01 | effect on ATPase activity in P-gp [12]: stimulate ATPase activity
CN(C)c1ccc2c(-c3ccc(C(=O)N4CCCCC4)s3)c3cc4c5c(c3[se+]c2c1)CCCN5CCC4.[Cl-] [6-Se—Cl, 12-(Dimethylamino)-2,3,6,7-tetrahydro-9-(N-piperidyl-2-thienyl-5-carboxamido)-1H,5H-selenoxantheno[2,3,4-ij]quinolizin-14-ium hexafluorophosphate(V)] | 0.23 ± 0.03 | – | 14910 | 88.39 (±1.13) % | 0.011 ± 0.002 | log P (pH 7.4): 2.74 ± 0.02
CCN(CC)C(=O)c1ccc(-c2c3ccc(=[N+](C)C)cc-3sc3cc4c(cc23)C(C)(C)CCN4C)s1.[Cl-] [4-S—Cl] | – | 2.16 ± 0.02 | 64332 | 92.08 (±0.49) % | 0.09 ± 0.01 | dark toxicity [8]: not associated with any significant dark toxicity; cell death after PD [10]: Significant cell death
CN1CCC(C)(C)c2cc3c(-c4ccc(C(=O)N5CCCCC5)s4)c4ccc(=[N+](C)C)cc-4[se]c3cc21.[Cl-] [2-Se—Cl, N-methyl-N-(1,4,4-trimethyl-6-(5-(piperidine-1-carbonyl)thiophen-2-yl)-3,4-dihydro-1H-selenochromeno[3,2-g]quinolin-9(2H)-ylidene)methanaminium Chloride] | 0.48±0.03 | 2.23 ± 0.04 | 6536 | 92.17 (±1.09) % | 0.009 ± 0.001 | dark toxicity [8]: not associated with any significant dark toxicity; also recorded: minimal toxicity; effect of PD on basal OCR [9]: did not significantly impede the basal OCR; activated T cells eliminated from culture ([13]; FACS 18 hours after PD): Greater than 90%; aerobic glycolysis after PD ([13]; activated T cells): not affecting aerobic glycolysis of either population; OXPHOS associated ATP production after PD ([13]; activated T cells, within 1 hour): significantly impeded; response to TSST-1 after PD ([14]; challenge with TSST-1, 6 days): a robust response was observed; proliferation in response to SEB after PD ([14]; rechallenge with SEB, 6 days): no proliferation occurred; aerobic glycolysis after PD [15]: not affecting aerobic glycolysis of either population; cell death in resting T cell population [15]: minimal to no cell death; cell death after PD [10]: minimal cell death
